Values joined by “and” are separate entries in the source; they are usually repeats but may differ in a detail not shown here. Equal entries are not always repeated.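 1) Cells in 96-well plates. 2) Compound, 48 h, 5 concentrations. 3) Linear interpolation between surrounding doses. 4) Unreached endpoint = highest concentration. Abbreviation: GI50, concentration required for 50% inhibition of growth. TGI: concentration producing complete growth inhibition.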
Experiments:
Experiment in all cases: inhibition of tumour cell growth, NCI panel, 48 h
[1] = test system: DMS 273 small cell lung
[2] = test system: HOP-18 NSCLC
[3] = test system: DMS 114 small cell lung
[4] = test system: KM20L2 colon
[5] = test system: SNB-78 CNS
[6] = test system: LXFL 529 NSCLC
[7] = test system: MCF7 breast
[8] = test system: MDA-MB-231 breast
[9] = test system: MDA-MB-435
[10] = test system: BT-549 breast

Row | Compound | TGI [1] | TGI [2] | TGI [3] | TGI [4] | TGI [5] | TGI [6] | other results
1 | Clc1ccc(C2=NN(c3ccccc3)C3c4cc(Br)ccc4OCC23)cc1 (stereo unspecified) | > 100 µM | > 100 µM | > 100 µM | > 100 µM | > 100 µM | > 100 µM | –
2 | COC(=O)C12C3C=CC(O3)C1C1C=CC2O1 (stereo unspecified) | > 100 µM | > 100 µM | – | > 100 µM | – | > 100 µM | –
3 | COc1ccc(Nc2nc3c(N)cc(C(F)(F)F)cc3nc2-c2ccccc2)cc1 | > 100 µM | > 100 µM | > 100 µM | > 100 µM | > 100 µM | > 100 µM | –
4 | COc1cc(-c2[nH]ncc2CCCC(=O)Nc2ccccc2[N+](=O)[O-])ccc1O | > 100 µM | > 100 µM | 93.2 µM | – | – | > 100 µM | –
5 | C=C1C(=O)C23C(O)C1CCC2C12CO[C@]3(O)[C@@H](O)C1C(C)(C)CCC2O (stereo partly specified) | 28.1 µM | 25.5 µM | 20.7 µM | 30.5 µM | 32.8 µM | 6.03 µM | –
6 | COc1ccc(Br)c(CCCCC(=O)O)c1 | > 100 µM | > 100 µM | > 100 µM | > 100 µM | > 100 µM | > 100 µM | –
7 | C[CH2][Sn]([CH2]C)([O]C(=O)c1cc(OC)c(OC)c(OC)c1)[O][Sn]([CH2]C)([CH2]C)[O]C(=O)c1cc(OC)c(OC)c(OC)c1 | > 100 µM | 42.4 µM | 29.1 µM | > 100 µM | 41 µM | – | GI50 [1]: 84.5 µM; GI50 [2]: 22.2 µM; GI50 [3]: 15.1 µM; GI50 [4]: 64.6 µM; GI50 [5]: 17 µM
8 | COc1cc(C2c3cc4c(cc3[C@@H](OCCN)[C@H]3COC(=O)C23)OCO4)cc(OC)c1O (stereo partly specified) | – | > 100 µM | 0.162 µM | 2.79 µM | > 58.9 µM | 7.75 µM | –
9 | Fc1cccc(C=NC23CC4CC(CC(C4)C2)C3)c1 | > 100 µM | > 100 µM | > 100 µM | > 100 µM | > 100 µM | > 100 µM | –
10 | CN(C)CC1CCCC(CN(C)C)C1=O (stereo unspecified) | 26.8 µM | 3.32 µM | 3.87 µM | 13.2 µM | 10.3 µM | 0.998 µM | GI50 [7]: 0.575 µM and 3.45 µM; TGI [7]: 6 µM and > 41.7 µM; GI50 [8]: 3.9 µM and 16 µM; TGI [8]: 13 µM and 31.2 µM; GI50 [9]: 19.6 µM and 8.54 µM; TGI [9]: 39.1 µM and 23.8 µM; GI50 [10]: 3.24 µM and 19.4 µM; TGI [10]: 10.7 µM and 38 µM
11 | CCOc1ccc(NC(=O)/C(=C/c2ccccc2)C(C)=O)cc1 | 43.2 µM | 25.5 µM | 26.9 µM | 32.5 µM | 38.8 µM | – | –
12 | COC(=O)[C@@]12C3=NO[C@]1(C(=O)OC)C(O[Si](C)(C)C(C)(C)C)C1OC(C)(C)OC1[C@@H]2[C@@H](OCc1ccccc1)CC3 (stereo partly specified) | > 100 µM | > 100 µM | > 100 µM | > 100 µM | – | > 100 µM | –
13 | O=c1[nH]cnc2c1nnn2C1C=C(CO)C(O)C1O (stereo unspecified) | 60.1 µM | > 100 µM | > 100 µM | > 100 µM | > 100 µM | > 100 µM | –
14 | Nc1ncn([C@@H]2C=C(CO)C(O)C2O)c(=O)n1 (stereo partly specified) | > 100 µM | > 100 µM | – | > 100 µM | > 100 µM | > 100 µM | –
15 | Cc1cc(C)c2c(c1C)CN1CN2Cc2c(C)c(C)cc(C)c21 | > 100 µM | > 100 µM | 44.1 µM | – | > 100 µM | > 100 µM | –
16 | Nc1ccc(C(=O)O)c2[nH]c3ccccc3c(=O)c12 | > 100 µM | > 100 µM | > 100 µM | > 100 µM | > 100 µM | > 100 µM | –
17 | CC1(C)CC[C@]2(C(=O)O)CCC3(C)C(=CCC4[C@@]5(C)CC[C@H](OC6OCC(O)C(O)C6OC6OC(CO)C(O)C(O)C6O)C(C)(C)C5CC[C@]43C)C2C1 (stereo partly specified) | 3.93 µM | 3.48 µM | 3.62 µM | 3.7 µM | 5.04 µM | 3.39 µM | –
18 | O=C1/C(=C/c2ccccc2Cl)COc2ccccc21 | 31.6 µM | 24 µM | 36.2 µM | 38.1 µM | 41.3 µM | 31.6 µM | –
19 | COc1ccccc1NS(=O)(=O)c1cc(C(C)(C)C)ccc1OCCOc1ccc(C(C)(C)C)cc1S(=O)(=O)Nc1ccccc1OC | > 100 µM | > 100 µM | > 100 µM | – | > 100 µM | – | –
20 | CC/C(=C(/CC)c1ccc(OP(=O)([O-])[O-])cc1)c1ccc(OP(=O)([O-])[O-])cc1.N.N.N.N.[Pt+4].[Pt+4] | 18.9 µM | > 100 µM | – | > 100 µM | 6.81 µM | 31.6 µM | GI50 [1]: 2.17 µM; GI50 [2]: 59 µM; GI50 [4]: 26.1 µM; GI50 [5]: 2.3 µM; GI50 [6]: 14 µM
21 | COc1ccc(C=O)c(N(C)C(=O)C(C)(C)C)c1 | > 100 µM | > 100 µM | > 100 µM | > 100 µM | > 100 µM | – | –
22 | CCN1CCC(O)(c2ccccc2)C(C(=O)c2ccccc2)C1 (stereo unspecified) | > 100 µM | 28 µM | > 67.4 µM | > 60.7 µM | 54.1 µM | 29.4 µM | –
23 | Nc1cc2c3c(cccc3c1)C(=O)N(CCN1CCN(CCN3C(=O)c4cccc5cc(N)cc(c45)C3=O)CC1)C2=O | > 100 µM | > 100 µM | > 100 µM | > 100 µM | – | > 100 µM | –
24 | Cc1ccc(NC(=O)CCC(=O)C2CC(=O)CCC2=O)cc1C (stereo unspecified) | > 100 µM | > 100 µM | > 100 µM | > 100 µM | > 100 µM | > 100 µM | –
25 | Cn1c(=O)c2c(nc3n2C(CCl)CO3)n(C)c1=O (stereo unspecified) | > 100 µM | > 100 µM | > 100 µM | – | > 100 µM | – | –

Source: PubChem BioAssay (NCI)
